Results published in patent US5310745A, “Antiviral compounds” (priority 1992, dated 1994).
Where two headings read alike, the source gives them in different places.

Assays:
visna virus = experiment: Plaque reduction assay, inhibition of visna virus in vitro; format: cell-based; parameters: key to Antiviral Activity: A: active compound; I: inactive compound; details: Table 1
Text: Visna virus, a lentivirus genetically very similar to the AIDS virus, is pathogenic for sheep and goats. See Sonigo et al., Cell 42, 369-382 (1985); Haase, Nature 322, 130-136 (1986). Inhibition of visna virus replication in vitro as a useful model for human immunodeficiency virus (HIV) and its inhibition by test compounds has been described by Franket al., Antimicrobial Agents and Chemotherapy 31 (9), 1369-1374 (1987). The N-butyl derivative of 1,5-dideoxy-1,5-imino-D-glucitol, also referred to as n-butyl-deoxynojirimycin (N-Bu-DNJ), was used as a control standard for comparison with various novel compounds of this invention.
Various compounds as prepared above were tested for inhibition of visna virus in vitro in a plaque reduction assay as follows:
(§1) Sheep choroid plexus (SCP) cells were obtained from American Type Culture Collection (ATCC) catalogue number CRL 1700 and were routinely passaged in vitro in Dulbecco's Modified Eagles (DME) medium supplemented with 20% fetal bovine serum (FBS). SCP cells were passaged once per week at a 1:2 or 1:3 split ratio. Visna was titrated by plaque assay in six-well plates. Virus pools were stored at -70° C.
(§2) SCP cells were cultured in 6-well plates to confluence. Wells were washed two times with serum free Minimal Essential Medium (MEM) to remove FBS. 0.2 ml of virus was added per well in MEM supplemented with 4 mM glutamine and gentamycin. After 1 hour adsorption, the virus was aspirated from each well. The appropriate concentration of each compound in 5 ml of Medium 199 (M-199) supplemented With 2% lamb serum, 4 mM glutamine, 0.5% agarose and gentamycin was added to each well. Cultures were incubated at 37° C. in a humidified 5% CO2 incubator for 3-4 weeks. To terminate the test: cultures were fixed in 10% formalin, the agar removed, the monolayers stained with 1% crystal violet and plaques counted. Each compound concentration was run in triplicate. […] 0 is no toxicity observed while 4 is total lysing of the cell monolayer.

[1] = system: Sheep choroid plexus (SCP) cells; experiment: Toxicity of compounds in control wells without virus, graded morphologically; format: cell-based; details: 0 to 4 scale, Table 1
Experimental: as §1, §2

[2] = system: Sheep choroid plexus (SCP) cells; experiment: as above; format: cell-based; parameters: key: 0: no toxicity; 4: total cell lysates; details: 0 to 4 scale, Table 1
Experimental: as §1, §2

HIV = details: cited from earlier work; for HIV inhibitory activity: disclosed in earlier patents/applications
[3] = Pharmacokinetic and metabolism study, Rhesus monkey; format: in vivo; details: for metabolic profiles of either radiolabeled compound (pro-drug, metabolite): monkey, oral, plasma and urine
Experimental: (§3) The parent tetrabutyrate compound consequently serves as an antivirally effective and useful pro-drug of the latter compound to which it is metabolized in the gut. […] The parent pro-drug was not detected. […] The oral bioactivity of the metabolite compound, measured as [^14 C]-metabolite compound, was determined to be between 28% and 50% in the Rhesus monkey, depending on the vehicle used (e.g., 0.5% methyl cellulose and 0.1% polysorbate in water). […] The blood levels of the metabolite compound, measured as part of a long term SIV infected monkey efficacy study, following oral dosing (high dose 750 mg/kg, low dose 250 mg/kg, administered every eight hours) with the pro-drug, yielded mean trough (cmin) plasma blood levels of the metabolite compound at eight hours post dosing of approximately 10 μg/mL and 6.8 μg/mL for the high and low doses, respectively.

[4] = Pharmacokinetic and metabolism study, rat; format: in vivo
Experimental: as §3

sucrase = experiment: Sucrase inhibition locally in the gut; format: in vivo, monkey; details: normal, uninfected monkeys
Diarrheagenic effect = format: in vivo, monkey; details: normal, uninfected monkeys
[5] = oral [14C] pro-drug, Rhesus monkey

| SMILES | Antiviral Activity (visna virus; 0.01 mM) | Antiviral Activity (visna virus; 0.1 mM) | Antiviral Activity (visna virus; 1.0 mM) | Toxicity ([1]; 0.1 mM) | Toxicity ([2]; 0.01 mM) | HIV inhibitory activity (HIV) | Toxicity ([2]; 1.0 mM) | Antiviral Activity (visna virus; 0.001 mM) | Toxicity ([2]; 0.001 mM) | also measured |
| --- | --- | --- | --- | --- | --- | --- | --- | --- | --- | --- |
| CC(=O)OC[C@@H]1[C@@H](OC(C)=O)[C@H](OC(C)=O)[C@@H](OC(C)=O)CN1C(=O)CCc1ccccc1 [Example 20, 1,5-(Hydrocinnamoylimino)-1,5-dideoxy-D-glucitol, tetraacetate] | A | A | A | 1 | 0 | – | – | – | – | Toxicity ([1]; 1.0 mM): 2 |
| CN1C[C@H](O)[C@@H](O)[C@H](O)[C@H]1CO [Example 9, 1,5-(Methylimino)-1,5-dideoxy-D-glucitol] | – | – | – | – | – | HIV inhibitory activity | – | – | – | – |
| CCCCN1C[C@H](OC(=O)CC)[C@@H](OC(=O)CC)[C@H](OC(=O)CC)[C@H]1COC(=O)CC [Example 17, 1,5-(Butylimino)-1,5-dideoxy-D-glucitol, tetrapropionate] | A | Toxic | – | – | – | – | – | – | – | Toxicity ([1]; 0.01 mM): 2; Toxicity ([2]; 0.1 mM): 4 |
| Cc1cn([C@H]2C[C@H](N=[N+]=[N-])[C@@H](CO)O2)c(=O)[nH]c1=O [AZT, 3'-azido-3'-deoxythymidine] | – | – | – | – | – | – | – | – | – | inhibition of virus replication in vitro (HIV; in vitro): inhibit replication of the virus in vitro |
| OC[C@H]1NC[C@H](O)[C@@H](O)[C@@H]1O [deoxynojirimycin, 1,5-dideoxy-1,5-imino-D-glucitol] | – | – | – | – | – | HIV inhibitory activity | – | – | – | – |
| CCCCN1C[C@H](OC(=O)c2ccccc2)[C@@H](OC(=O)c2ccccc2)[C@H](OC(=O)c2ccccc2)[C@H]1COC(=O)c1ccccc1 [Example 18, 1,5-(Butylimino)-1,5-dideoxy-D-glucitol, tetrabenzoate] | – | A | A | 1 | – | – | 0 | – | – | – |
| CCCCCCCCCN1C[C@H](OC(C)=O)[C@@H](OC(C)=O)[C@H](OC(C)=O)[C@H]1COC(C)=O [Example 14, 1,5-(Nonylimino)-1,5-dideoxy-D-glucitol, tetraacetate] | A | A | Toxic | 2 | 0 | – | 4 | A | 0 | – |
| CCOC(=O)CC(=O)N1C[C@H](OC(C)=O)[C@@H](OC(C)=O)[C@H](OC(C)=O)[C@H]1COC(C)=O [Example 8, 1,5-(Ethylmalonylimino)-1,5-dideoxy-D-glucitol, tetraacetate] | – | A | A | – | – | – | 0 | – | – | Toxicity ([2]; 0.1 mM): 0 |
| CCCCN1C[C@H](OC(=O)CCC)[C@@H](OC(=O)CCC)[C@H](OC(=O)CCC)[C@H]1COC(=O)CCC [Example 16, 1,5-(Butylimino)-1,5-dideoxy-D-glucitol, tetrabutyrate] | A | A | Toxic | 1 | 0 | – | 4 | A | 0 | metabolic transformation in vivo ([3]; Rhesus monkey): controlled, sustained levels of a metabolite; metabolic profiles of either radiolabeled compound (pro-drug, metabolite) [3]: the same in plasma and urine; parent pro-drug in plasma [3, 5]: not detected; radiolabeled compound in plasma after oral pro-drug [3, 5]: yielded only [^14 C]SC-metabolite compound in the plasma; metabolic transformation in vivo [4]: controlled, sustained levels of a metabolite; parent pro-drug in plasma ([4]; oral [14C] pro-drug): not detected; radiolabeled compound in plasma after oral pro-drug ([4]; oral [14C] pro-drug): yielded only [^14 C]SC-metabolite compound in the plasma; parent pro-drug in portal plasma ([4]; oral, portal plasma): no parent pro-drug detected; inhibition of sucrase locally in the gut (sucrase): does not significantly inhibit sucrase locally in the gut; diarrheagenic results (Diarrheagenic effect): negative diarrheagenic results |
| CCCCN1C[C@H](O)[C@@H](O)[C@H](O)[C@H]1CO [N-Bu-DNJ, 1,5-(Butylimino)-1,5-dideoxy-D-glucitol, reference compound] | I | A | A | 1 | 0 | HIV inhibitory activity | – | I | 0 | Toxicity ([1]; 1.0 mM): 2; metabolic profiles of either radiolabeled compound (pro-drug, metabolite) [3]: the same in plasma and urine; HIV inhibitory activity (HIV; listed as N-butyl derivative of deoxynojirimycin): substantially more effective anti-HIV activity |
